The data set is described as follows: Tissue distribution in JIMT-1 tumor-bearing mice. The note with it: 20 mg/kg tail vein injection. The class given is in vivo. On the procedure:
48 human breast cancer JIMT-1 tumor-bearing mice were randomly divided into 2 experimental groups, with a total of 6 mice in each experimental group at each time point. Both of the two preparations were administered to the respective experimental mice at a dose of 20 mg/kg through tail vein injection. Blood samples were collected from each group at 0.25, 1, 3 and 24 hours after administration and the mice were sacrificed immediately. Tumor, heart, liver, spleen, lung, kidney, stomach, small intestine, pancreas and ovary tissues were dissected and subjected to pretreatments such as homogenization, the drug concentration in each tissue sample was determined by protein precipitation-LC/MS/MS method, and the main pharmacokinetic parameters were calculated by using the non-compartmental model of Phoenix WinNonlin 8.0 software (Pharsight, USA).

Turning to `CC(=O)O[C@H]1C(=O)[C@@]2(C)[C@H]([C@H](OC(=O)c3ccccc3)[C@]3(O)C[C@H](OC(=O)[C@H](O)[C@@H](NC(=O)c4ccccc4)c4ccccc4)C(C)=C1C3(C)C)[C@]1(OC(C)=O)CO[C@@H]1C[C@@H]2O` [paclitaxel], the “tissue with the highest exposure” value was “highest exposure in the liver”.

The values above are taken from US20250288535A1, “INSTANT NANOPARTICLE COMPOSITION AND PREPARATION METHOD THEREFOR” (CSPC ZHONGQI PHARMACEUTICAL TECHNOLOGY (SHIJIAZHUANG) CO., …, priority 2022, published 2025).
